Measurements taken from PubChem BioAssay (NCI).
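All cell lines were grown in 96-well plates and treated with compound for 48 hours. GI50 marks 50% less growth. The concentration for full growth arrest is given as TGI.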

How the values were obtained:
Test in all cases: NCI tumour cell line growth inhibition, 48 h
NCI-H23 lung = test system: NCI-H23 lung
SK-MEL-5 melanoma = test system: SK-MEL-5 melanoma
SK-MEL-2 melanoma = test system: SK-MEL-2 melanoma
SF-268 CNS = test system: SF-268 CNS
HCT-15 colon = test system: HCT-15 colon
SK-MEL-28 melanoma = test system: SK-MEL-28 melanoma
U251 CNS = test system: U251 CNS
HOP-92 NSCLC = test system: HOP-92 NSCLC
SF-295 CNS = test system: SF-295 CNS
SW-620 colon = test system: SW-620 colon

Row | SMILES | TGI (NCI-H23 lung) [µM] | TGI (SK-MEL-5 melanoma) [µM] | TGI (SK-MEL-2 melanoma) [µM] | TGI (SF-268 CNS) [µM] | TGI (HCT-15 colon) [µM] | TGI (SK-MEL-28 melanoma) [µM] | TGI (U251 CNS) [µM] | TGI (HOP-92 NSCLC) [µM] | TGI (SF-295 CNS) [µM] | TGI (SW-620 colon) [µM] | GI50 (NCI-H23 lung) [µM] | GI50 (SK-MEL-5 melanoma) [µM] | GI50 (SK-MEL-2 melanoma) [µM] | GI50 (SF-268 CNS) [µM] | GI50 (HCT-15 colon) [µM] | GI50 (SK-MEL-28 melanoma) [µM] | GI50 (U251 CNS) [µM] | GI50 (HOP-92 NSCLC) [µM] | GI50 (SF-295 CNS) [µM] | GI50 (SW-620 colon) [µM]
1 | Nc1ncnc2c1ncn2C1CCC(CO)O1 (centres undefined) | > 71.5 | > 100 | > 100 | > 87.7 | > 100 | > 68.2 | > 100 | > 86.4 | > 79.4 | > 100 |  |  |  |  |  |  |  |  |  | 
2 | CCOP(=O)(OCC)C(Cc1ccc(OC)c(OC)c1)N=C(c1ccccc1)c1ccccc1 (centres undefined) | > 100 | 55.9 |  | > 100 | > 100 | > 100 | > 100 | > 100 | > 100 | > 100 |  |  |  |  |  |  |  |  |  | 
3 | CC(C)=CCc1c(C)cc2cc3c(c(O)c2c1O)C(O)=CC(=O)C3(CC=C(C)C)C/C=C(\C)CO (centres undefined) | 84.8 | 50.9 | 29.8 | 85.4 | 68 | 86.8 | 70 | 75.6 | 87.9 | 78.9 |  |  |  |  |  |  |  |  |  | 
4 | CC[C@@H](C(=O)[C@@H](C)[C@@H](O)[C@H](C)CCc1ccc(C)c(O)c1C(=O)O)[C@H]1O[C@](CC)([C@H]2CC[C@](O)(CC)[C@H](C)O2)C[C@@H]1C | 6.87 | 3.62 | 3.82 | 9.09 | 16 | 2.86 | 6.33 | 8.96 | 6.91 | 15.6 |  |  |  |  |  |  |  |  |  | 
5 | COc1c2c(cc3c(CCc4ccccc4)cc(=O)oc13)CCC(C)(C)O2 | > 100 | > 100 | > 100 | > 100 | > 100 | > 100 | > 100 | > 100 | > 100 | > 100 |  |  |  |  |  |  |  |  |  | 
6 | CCOc1ccc2c(ccc(/C=C\c3cc(C)c4cccnc4c3O)[n+]2C)c1 | 43.5 | 3.48 | 3.24 | 28.3 | 23.7 | 14.6 | 4.53 | 3.36 | 20.7 | 28 |  |  |  |  |  |  |  |  |  | 
7 | O=C1CN2C(Cl)(Cl)C2(c2ccccc2)c2cc(Cl)ccc2N1CC(F)(F)F (centres undefined) | 70.1 | 33.2 | 54.9 | > 100 | 81.6 | 61 | 37.8 | 41.1 | > 100 | > 100 |  |  |  |  |  |  |  |  |  | 
8 | CCOc1ccc(/C=C/[N+](=O)[O-])cc1 | > 100 | 18.5 | 33 | 28.6 | 11.3 | 30.9 | 8.83 | 28.1 | 41.8 | 11.9 | 18.5 | 5.78 | 17.1 | 14.1 | 2.84 | 16.6 | 3.1 | 12.9 | 19.2 | 3.15
9 | [C-]#[O+].[Cl][Sn]([Cl])[Cl].[Cl][Sn]([Cl])[Cl].[Pt].c1ccncc1 | > 100 | > 100 | > 100 | > 100 | > 100 | > 100 | > 100 | > 100 | > 100 | > 100 |  |  |  |  |  |  |  |  |  | 
10 | O=C(O)c1cc(=O)[nH]c(=S)[nH]1 | > 100 | > 100 | > 100 | > 100 | > 100 | > 100 | > 100 | > 100 | > 100 | > 100 |  |  |  |  |  |  |  |  |  | 
11 | O=C(Nc1nc2ccc([N+](=O)[O-])cc2[n+]([O-])n1)C(F)(F)F | 80.3 | 25.3 | 65.2 | > 100 | 98.8 | > 100 | > 100 | > 100 | > 100 | > 100 |  |  |  |  |  |  |  |  |  | 
12 | CC(C)=CC(=O)OC1C2C(C)C(=O)OC2C(O)C(C)C2C=CC(=O)C21C (centres undefined) | 7.59 | 9.14 | 11.5 | 8.42 | 8.52 | 3.82 | 8.3 | 8.85 | 13.4 | 5.29 |  |  |  |  |  |  |  |  |  | 
